The source of these data is article PMC4348036, “Structural and Functional Investigation of Flavin Binding Center of the NqrC Subunit of Sodium-Translocating NADH:Quinone Oxidoreductase from Vibrio harveyi” (PLoS ONE, 2015).

The target of this assay is T1, holoNqrC' (NqrC subunit of Na+-translocating NADH:quinone oxidoreductase, soluble flavin-binding domain) (Vibrio harveyi, UniProt K5TWQ4).
T1 construct: soluble truncated NqrC without N-terminal transmembrane helix, residues 33-261, C-terminal 6xHis tag; E. coli, co-expressed with flavin transferase ApbE (plasmids pMshC3 + pdhis3); model covers residues 36-261
T1 sequence (K5TWQ4 33-261): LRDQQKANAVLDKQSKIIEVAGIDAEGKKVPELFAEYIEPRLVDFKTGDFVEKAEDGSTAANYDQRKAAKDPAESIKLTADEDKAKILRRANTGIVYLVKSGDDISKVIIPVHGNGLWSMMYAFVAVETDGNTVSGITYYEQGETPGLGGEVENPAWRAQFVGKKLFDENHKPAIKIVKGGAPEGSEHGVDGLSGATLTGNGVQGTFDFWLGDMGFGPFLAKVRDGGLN
In words: X-ray crystallography, […] Å. The following applies: covalent; phosphoester bond to Thr229, attached in vivo by flavin transferase ApbE; pH 6.8.

`Cc1cc2nc3c(=O)[nH]c(=O)nc-3n(C[C@H](O)[C@H](O)[C@H](O)COP(=O)(O)O)c2cc1C` [FMN]: the “X-ray crystallography, 1.56 Å” value is reported as “The electron density of Thr229 side chain unambiguously demonstrates its flavinylation”.
